Results as given in patent US4933336A, “Thiadiazinone, oxadiazinone and triazinone derivatives, and their use for treating acute or chronic heart disease” (Laboratoires Sobio S.A., priority 1987, dated 1990).
Read-outs that look alike come from different tables or passages of the source.

What was measured:
[1] = tested on: conscious instrumented Dog; test: Cardiotonic activity in the conscious instrumented Dog; assay type: in vivo, dog (male Beagle); settings: Canis lupus familiaris, po; for change in vivo at 0.1 mg/kg: 0.10 mg/kg p.o.; for change in vivo at 1 mg/kg: 1.00 mg/kg p.o.; for change in vivo at 0.3 mg/kg: 0.30 mg/kg p.o.; for change in vivo at 3 mg/kg: 3.00 mg/kg p.o.; for change in vivo at 0.03 mg/kg: 0.03 mg/kg p.o.
Experimental: Cardiotonic activity in the conscious instrumented Dog
Male Beagle dogs, at least 2 years old, weighing 12 to 18 kg were anaesthetised with pentobarbital sodium (30 mg/kg i.v.). Respiration was maintained by a Harward pump, model 613a. The heart was exposed through a left thoracotomy and a pericardial cardle was formed. A high fidelity micromanometer (Koenigsberg P5 -P7) was inserted into left venitricular lumen through a stab incision at the apex. Wires were exteriorised to the back of the animals, placed into a size adapted jacket, and the chest closed. The experiments were conducted on the conscious dogs, 1 or 2 weeks after the surgery, when the animals had completely recovered.
Measured parameters were : first derivative of left ventricular pressure, (dP/dt, mmHg/sec); heart rate (HR, beats/min.). A control period recording of 90 min. was made with the dogs placed in a quiet room, the recordings being made outside. Compounds to be tested were administered orally in gelatin capsules and the parameters measured for 5 hrs. at least.
Results were expressed as the percentage of the maximum±SEM.

[2] = tested on: Canine cardiac myofibrillar Ca++-dependent Mg++ ATPase; test: Measurement of myofibrillar Ca++-dependent Mg++ATPase activity (Ca++ sensitivity and maximal activity); assay type: biochemical, canine (dog); settings: pH 7.0, 21° C.
Experimental: 1. Measurement of myofibrillar Ca++-dependent Mg++ATPase activity
the effect on myofibrillar Ca++sensitivity and on maximal activity of myofibrillar Ca++-dependent Mg++-ATPase was determined on canine cardiac myofibrils.
(a) Contractile protein preparation
Cardiac myofibrils free of membrane contaminants were prepared from left ventricular tissue of dog hearts using a modification of the method described by SOLARO et al, Biochem. Biophys. Acta, 245, 259-262, (1971). Before centrifugration, the heart homogenate was filtered through gauze.
After Triton X-100 treatments, the myofibrillar fraction was washed once by resuspension and centrifugation in 10 volumes of 1 mM EGTA, […], 30 mM imidazole, 2 mM MgCl2, pH 7.0. The pellet was then washed three times in 10 volumes of the same buffer without EGTA. Before the last centrifugation, the suspension of myofibrils was filtered through a stainless steel sieve with 0.25 mm meshes.
Myofibrils were kept in pellet overnight. Before use, the pellet was suspended in a small amount of buffer, the protein concentration was determined by the method of BRADFORD M., Anal. Biochem., 1976, 72, 248 and adjusted in order to have a concentration between 6 and 7 mg/ml.
(b) Myofibrillar ATPase activity
Ca++-dependent myfibrillar ATPase activity was determined at 21° C., pH 7.0, by measuring the rate of release of inorganic phosphate. All assays were performed within 24 hrs. of final purification, using the method described by SOLARO and RUEGG, CIRC. RES., 51, 290-4, (1982). Reaction mixtures (4 ml) containing 0.6-0.7 mg/ml myofibrillar protein, 80 mM KCl, 20 mM imidazole, 3 mM […], 1 mM EGTA, the desired amount of CaCl2, and the indicated concentration of drug or appropriate vehicle were preincubated for 6 min. prior to assay. The amount of CaCl2 was varied between 0 and 0.9 mM and the pCA (-log free Ca++) computed using 2.514×10^6 M^-1 as the apparent affinity of Ca++for EGTA at pH 7.0.
Reactions were initiated by the addition of Na2 ATP to final concentration of 2 mM. After an incubation period of 12 min., reactions were quenched by the addition of an equal volume of ice-cold 10% trichloroacetic acid. The protein was pelleted by centrifugation (2000 g, 15 min.) and Pi was assayed in the supernatant fraction using a modification of the method described by LANZETTA et al, Anal. Biochem., 100, 95-97, (1979).
The following solutions were prepared:
(1) 3.7% ammonium heptamolybdate in 0.12N H2 SO4
(2) 0.074% malachite green oxalate in 1% polyvinylic alcohol.
the colour reagent was prepared by mixing an equal volume of solution (1) and (2) 15 min. before the assay. For the assay, 1700 μl of 1% H2 SO4 and 1 ml of colour reagent were added to 100 μl of sample. Colour development occurred at room temperature for 30 min. and was quenched by the addition of 200 μl of 1M tri-potassium citrate. The absorbance was measured at 620 millimicrons.
The effect of each compound, tested at the indicated concentration, on the relation between pCa and percent activation was determined taking 100% for the maximum ATPase activity obtained with vehicle alone. The effect on Ca++ sensitivity was quantified by measuring the shift of the pCa giving 50% of the maximal control ATPase activity.
The effect on maximal ATPase activity was expressed as the percent change of ATPase activity for pCa=5.47.

[3] = read-out: H.R. (heart rate), percentage of the maximum ± SEM
[4] = read-out: dP/dt Max (first derivative of left ventricular pressure), percentage of the maximum ± SEM

In the case of `CC1SC(=O)NN=C1c1ccc2c(c1)CC(C)(C)C(=O)N2` (stereo not shown) [Example 36, 3,4-Dihydro-6-(3,6-dihydro-6-methyl-2-oxo-2H-1,3,4-thiadiazin-5-yl)-3,3-dimethyl-2(1H)-quinolinone], the change in vivo at 0.1 mg/kg [1, 3] is reported as 7%, the change in vivo at 0.1 mg/kg [1, 4] is reported as 46% and the “Max ATPase activity (%) (percent change of ATPase activity for pCa=5.47)” value ([2]; 3 × 10^-5 molar) is reported as -4 ± 3%. The “Ca2+ sensitivity p CA50 (shift of the pCa giving 50% of the maximal control ATPase activity)” value ([2]; 3 × 10^-5 molar) was 0.33 ± 0.07.
In the case of `CC1SC(=O)NN=C1c1ccc2c(c1)C1(CCCC1)C(=O)N2C(=O)c1ccncc1` (stereo not shown) [Example 27, 5'-(3 6-Dihydro-6-methyl-2-oxo-2H-1,3,4-thiadiazin-5-yl)-1'-[(4 pyridyl)carbonyl]-spiro[cyclopentane-1,3'-[3H]indol]-2'(1'H)-one], the change in vivo at 1 mg/kg [1, 3] is reported as 15%, the change in vivo at 1 mg/kg [1, 4] is reported as 63% and the “Max ATPase activity (%) (percent change of ATPase activity for pCa=5.47)” value ([2]; 3 × 10^-5 molar) is reported as “+2 ± 5%”. For the same compound, the “Ca2+ sensitivity p CA50 (shift of the pCa giving 50% of the maximal control ATPase activity)” value ([2]; 3 × 10^-5 molar) was 0.47 ± 0.10.
With `CC1SC(=O)NN=C1c1ccc2c(c1)C1(SCCS1)C(=O)N2` (stereo not shown) [Example 13, 5'-(3,6-Dihydro-6-methyl-2-oxo-2H-1,3,4 thiadiazin-5-yl) -spiro 1,3-dithiolane-2,3'-3H indol-2(1'H)-one] the change in vivo at 0.3 mg/kg [1, 3] was 15%, the change in vivo at 0.3 mg/kg [1, 4] was 43% and the “Max ATPase activity (%) (percent change of ATPase activity for pCa=5.47)” value ([2]; 3 × 10^-5 molar) was -11 ± 5%. The “Ca2+ sensitivity p CA50 (shift of the pCa giving 50% of the maximal control ATPase activity)” value ([2]; 3 × 10^-5 molar) was 0.58 ± 0.04.
With `O=C1NN=C(c2ccc3c(c2)C2(CCCS2)C(=O)N3)CS1` (stereo not shown) [Example 20, 5'-(3,6-Dihydro-2-oxo-2H-1,3,4-thiadiazin-5-yl)-spiro [thiolane-2,3'-[3H]-indol]-2'(1'H)-one] the change in vivo at 3 mg/kg [1, 3] was 8%, the change in vivo at 3 mg/kg [1, 4] was 45% and the “Max ATPase activity (%) (percent change of ATPase activity for pCa=5.47)” value ([2]; 3 × 10^-5 molar) was -5 ± 3%. For the same compound, the “Ca2+ sensitivity p CA50 (shift of the pCa giving 50% of the maximal control ATPase activity)” value ([2]; 3 × 10^-5 molar) was 0.21 ± 0.05.
For `CSC1(C)C(=O)Nc2ccc(C3=NNC(=O)SC3C)cc21` (stereo not shown) [Example 5, 1,3-Dihydro-5-(3,6-dihydro-6-methyl-2-oxo-2H-1,3,4-thiadiazin-5-yl)-3-methyl-3-methylthio-2H-indol-2-one], the change in vivo at 0.03 mg/kg [1, 3] was 16%, the change in vivo at 0.03 mg/kg [1, 4] was 45% and the “Max ATPase activity (%) (percent change of ATPase activity for pCa=5.47)” value ([2]; 20 × 10^-5 molar) was -8 ± 1%. The “Ca2+ sensitivity p CA50 (shift of the pCa giving 50% of the maximal control ATPase activity)” value ([2]; 20 × 10^-5 molar) was 0.40 ± 0.08.
For `CSC1C(=O)Nc2ccc(C3=NNC(=O)SC3)cc21` (stereo not shown) [Example 11, 1,3-Dihydro-5-(3,6-dihydro-2-oxo-2H-1,3,4-thiadiazin-5-yl) -3-methylthio-2H-indol-2-one], the change in vivo at 3 mg/kg [1, 3] was 7%, the change in vivo at 3 mg/kg [1, 4] was 51% and the “Max ATPase activity (%) (percent change of ATPase activity for pCa=5.47)” value ([2]; 20 × 10^-5 molar) was “+1 ± 0%”. For the same compound, the “Ca2+ sensitivity p CA50 (shift of the pCa giving 50% of the maximal control ATPase activity)” value ([2]; 20 × 10^-5 molar) was 0.36 ± 0.05.
For `CSC1(C)C(=O)Nc2ccc(C3=NNC(=O)SC3)cc21` (stereo not shown) [Example 1, 1,3-Dihydro-5-(3,6-dihydro-2-oxo-2H-1,3,4-thiadiazin-5-yl)-3-methyl-3-methylthio-2H-indol-2-one], the change in vivo at 0.3 mg/kg [1, 3] was 17%, the change in vivo at 0.3 mg/kg [1, 4] was 53% and the “Max ATPase activity (%) (percent change of ATPase activity for pCa=5.47)” value ([2]; 20 × 10^-5 molar) was -3 ± 2%. For the same compound, the “Ca2+ sensitivity p CA50 (shift of the pCa giving 50% of the maximal control ATPase activity)” value ([2]; 20 × 10^-5 molar) was 0.38 ± 0.03.
`CC1SC(=O)NN=C1c1ccc2c(c1)C(C)(C)C(=O)N2C` (stereo not shown) [Example 18, 1,3-Dihydro-5-(3,6-dihydro-6-methyl-2-oxo-2H-1,3,4-thiadiazin-5-yl)-1,3,3-trimethyl-2H-indol-2-one] was tested, and the change in vivo at 0.3 mg/kg [1, 3] was 28%, the change in vivo at 0.3 mg/kg [1, 4] was 74% and the “Max ATPase activity (%) (percent change of ATPase activity for pCa=5.47)” value ([2]; 3 × 10^-5 molar) was “+3 ± 3%”. For the same compound, the “Ca2+ sensitivity p CA50 (shift of the pCa giving 50% of the maximal control ATPase activity)” value ([2]; 3 × 10^-5 molar) was 0.19 ± 0.03.
For `CC1SC(=O)NN=C1c1ccc2c(c1)C1(CCCCC1)C(=O)N2` (stereo not shown) [Example 17], the change in vivo at 3 mg/kg [1, 3] was 9%, the change in vivo at 3 mg/kg [1, 4] was 40% and the “Max ATPase activity (%) (percent change of ATPase activity for pCa=5.47)” value ([2]; 3 × 10^-5 molar) was -17 ± 4%. For the same compound, the “Ca2+ sensitivity p CA50 (shift of the pCa giving 50% of the maximal control ATPase activity)” value ([2]; 3 × 10^-5 molar) was 0.41 ± 0.07.
For `CC1SC(=O)NN=C1c1ccc2c(c1)C(C)(C)CC(=O)N2` (stereo not shown) [Example 35, 3,4-Dihydro-6-(3,6-dihydro-6-methyl-2-oxo-2H-1,3,4-thiadiazin-5-yl)-4,4-dimethyl-2(1H)-quinolinone], the change in vivo at 0.1 mg/kg [1, 3] was 20%, the change in vivo at 0.1 mg/kg [1, 4] was 49% and the “Max ATPase activity (%) (percent change of ATPase activity for pCa=5.47)” value ([2]; 3 × 10^-5 molar) was -1 ± 2%. For the same compound, the “Ca2+ sensitivity p CA50 (shift of the pCa giving 50% of the maximal control ATPase activity)” value ([2]; 3 × 10^-5 molar) was 0.45 ± 0.05.
